Data taken from patent US6579859B1 (priority 2002, dated 2003).
Several values for one entry are separate records, joined by “and”; a condition that tells them apart may be missing. Equal entries are not always repeated.

Key:
Type in all cases: cell-based
Acanthamoeba (Cyst) = assay: Acanthamoeba cyst toxicity test (minimal lethal concentration); conditions: 24 hours exposure at 30° C.; no trophozoites after 6 days; replicate tests
Procedure: E. coli (ATCC#25922) were grown in Difaco Bacto nutrient agar and killed via UV light for use as nutrient for the Acanthamoeba cysts. The killed E. coli were placed on a non-nutrient agar plate. 1-2 drops of washed Acanthamoeba (from Tennessee Technological University) from a 2-3 day old plate were placed on the plate and incubated for 2-3 days at 30° C. A biofilm was prepared by placing approximately 9 milliliters of the active E. coli culture in sterile coplin jars containing 4 cover slips and incubating over night. The cover slips were rinsed in Osterhout-tris buffer and placed on 2-3 day old Acanthamoeba trophozoite plates and incubated for 7 days. In 7 days, the trophozoites will exhaust the E. coli nutrients and form cysts. The cover slips were soaked in approximately 9 milliliters of Osterhout-tris buffer and the cover slips placed in coplin jars. 50 ppm dilutions of the biocides to be tested were added to the coplin jars containing the cover slips with cysts and the coplin jars were incubated at 30° C. for 24 hours.
After 24 hours, the test solutions were removed and the cover slips soaked in Osterhout-tris buffer for 30 minutes. The cover slips were placed on non-nutrient agar plates with live E. coli. The plates were observed using an inverted microscope every day for 6 days to see if trophozoites were present. If trophozoites appeared, the test was positive. […]

[1] = system: Tetrahymena (Trophozoite); assay: Tetrahymena toxicity test (minimal lethal concentration); conditions: lowest concentration at which all Tetrahymena were dead in all replicate wells; replicate tests
Procedure: Tetrahymena cells from a commercial source were grown in PCB broth in a tissue culture flask. The cells were removed from the broth via centrifuge and suspended in Osterhout-tris buffer at a concentration of no greater than 60 cells per 10 micro liters. A standard 96 well test plate comprising successive 50% dilutions of this cellular solution per row was prepared. Chemicals to be tested were added to 3 adjacent wells. Organism viability was tested via observation through an inverted microscope at time zero and every 24 hours thereafter. Tetrahymena were judged viable if they were motile or had active contractile vacuoles. All organisms in a well had to be dead to have a negative reading. A positive reading indicated all or some viable orgasms in a well. The minimal lethal concentration (MLC) of the test materials to Tetrahymena was the lowest toxicant concentration in which all Tetrahymena were dead in all replicate wells.

Acanthamoeba Trophozoite = assay: Acanthamoeba trophozoite toxicity test (minimal lethal concentration); conditions: 24 hours at 30°; all organisms dead in all replicate wells; replicate tests
Procedure: E. coli (ATCC #25922) grown in Difco Bacto nutrient agar and killed via UV light were used as nutrient for the Acanthamoeba. The killed E. coli were placed on a non-nutrient agar plate. 1-2 drops of washed Acanthamoeba Trophozoite (from Tennessee Technological University) were placed on the plate and incubated for 2-3 days at 30° C. An inoculum was prepared by placing about 2 ml of Osterhout-tris buffer onto the 2-3 day old plates. A sterile loop was used to dislodge the Trophozoites from the agar surface. The liquid was transferred to a sterile tube and diluted 1:10. 10 micro liters were placed on a slide and counted to confirm about 90 Acanthamoeba per 10 micro liters for the test. This solution was placed in a standard 96 well test plate with successive 50% dilutions per row. A 400 ppm solution of toxicants in Osterhout-tris buffer was prepared. Toxicants were added to 3 adjacent wells for testing. To avoid cross contamination, a well was skipped between each 3 replicate wells in every row and every other row skipped on the plate. The plate was incubated at 30° for 24 hours. An inverted microscope was used to observe the organisms in the wells. Cytoplasm will move in live amoeba and/or the contractile vacuoles will remain active. All organisms had to be dead in a well to have a negative reading. […]

Compound	Minimal Lethal Concentration, Acanthamoeba (Cyst) (Acanthamoeba (Cyst))	Minimal Lethal Concentration, Tetrahymena (Trophozoite) [1] [µg/mL]	Minimal Lethal Concentration, Acanthanoeba (Trophozoite) (Acanthamoeba Trophozoite) [µg/mL]
CCCCCCCCCCCCCC[P+](CCCC)(CCCC)CCCC.[Cl-] [TBTDPC, Tri-n-butyl-tetradecylphosphonium chloride]	25 μg/ml (4×) and 40 μg/ml	2.5	2.5
OC[P+](CO)(CO)CO.[Cl-] [THPS, Tetra kis hydroxymethyl phosphonium chloride, reference compound]	>50 µg/mL	28	56
